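Step 1: Grow cells in 96-well plates. Step 2: Expose to compound for 48 hours at 5 concentrations. Step 3: Interpolate endpoints linearly; if unreached, use highest concentration. Here, GI50 denotes the concentration required for 50% inhibition of growth. The concentration for full growth arrest is given as TGI.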
Legend:
Assay in all cases: DTP human tumour cell line panel, 48 h
HCT-116 colon = tested on: HCT-116 colon
CCRF-CEM leukemia = tested on: CCRF-CEM leukemia
MDA-MB-435 = tested on: MDA-MB-435
SK-OV-3 ovarian = tested on: SK-OV-3 ovarian
K-562 leukemia = tested on: K-562 leukemia
OVCAR-8 ovarian = tested on: OVCAR-8 ovarian
NCI-H522 lung = tested on: NCI-H522 lung
RXF 393 renal = tested on: RXF 393 renal
NCI-H226 lung = tested on: NCI-H226 lung
HOP-92 NSCLC = tested on: HOP-92 NSCLC
NCI-H460 lung = tested on: NCI-H460 lung
UACC-257 melanoma = tested on: UACC-257 melanoma
UO-31 renal = tested on: UO-31 renal
SF-268 CNS = tested on: SF-268 CNS
MOLT-4 leukemia = tested on: MOLT-4 leukemia
TK-10 renal = tested on: TK-10 renal
OVCAR-3 ovarian = tested on: OVCAR-3 ovarian
U251 CNS = tested on: U251 CNS
NCI/ADR-RES ovarian = tested on: NCI/ADR-RES ovarian
IGROV1 ovarian = tested on: IGROV1 ovarian
OVCAR-4 ovarian = tested on: OVCAR-4 ovarian
ACHN renal = tested on: ACHN renal
SK-MEL-2 melanoma = tested on: SK-MEL-2 melanoma
SF-295 CNS = tested on: SF-295 CNS
SK-MEL-28 melanoma = tested on: SK-MEL-28 melanoma
MALME-3M melanoma = tested on: MALME-3M melanoma
EKVX NSCLC = tested on: EKVX NSCLC
HCT-15 colon = tested on: HCT-15 colon
CAKI-1 renal = tested on: CAKI-1 renal
T-47D breast = tested on: T-47D breast
HL-60(TB) leukemia = tested on: HL-60(TB) leukemia
OVCAR-5 ovarian = tested on: OVCAR-5 ovarian
DU-145 prostate = tested on: DU-145 prostate
COLO 205 colon = tested on: COLO 205 colon
NCI-H23 lung = tested on: NCI-H23 lung
BT-549 breast = tested on: BT-549 breast
SNB-75 CNS = tested on: SNB-75 CNS
MDA-MB-231 breast = tested on: MDA-MB-231 breast
KM12 colon = tested on: KM12 colon
UACC-62 melanoma = tested on: UACC-62 melanoma
M14 melanoma = tested on: M14 melanoma
SR leukemia = tested on: SR leukemia
SW-620 colon = tested on: SW-620 colon
SNB-19 CNS = tested on: SNB-19 CNS
HS 578T breast = tested on: HS 578T breast
786-0 renal = tested on: 786-0 renal
SN12C renal = tested on: SN12C renal
RPMI-8226 leukemia = tested on: RPMI-8226 leukemia
SK-MEL-5 melanoma = tested on: SK-MEL-5 melanoma
A498 renal = tested on: A498 renal
LOX IMVI melanoma = tested on: LOX IMVI melanoma
A549 NSCLC = tested on: A549 NSCLC
HT29 colon = tested on: HT29 colon
MCF7 breast = tested on: MCF7 breast
HOP-62 NSCLC = tested on: HOP-62 NSCLC
SF-539 CNS = tested on: SF-539 CNS
PC-3 prostate = tested on: PC-3 prostate

Structure (SMILES): NCCNC1=CC(=O)c2nc3ccccc3c3ccnc1c23
- GI50 (HCT-116 colon): 2300 nM
- TGI (HCT-116 colon): 14.8 µM
- GI50 (CCRF-CEM leukemia): 2530 nM
- TGI (CCRF-CEM leukemia): > 50.7 µM
- GI50 (MDA-MB-435): 1420 nM
- TGI (MDA-MB-435): 7.62 µM
- GI50 (SK-OV-3 ovarian): 3.69 µM
- TGI (SK-OV-3 ovarian): > 65.2 µM
- GI50 (K-562 leukemia): 1400 nM
- TGI (K-562 leukemia): > 24.3 µM
- GI50 (OVCAR-8 ovarian): 3.83 µM
- TGI (OVCAR-8 ovarian): > 100 µM
- GI50 (NCI-H522 lung): 1530 nM
- TGI (NCI-H522 lung): 4.4 µM
- GI50 (RXF 393 renal): 3.97 µM
- TGI (RXF 393 renal): 55.7 µM
- GI50 (NCI-H226 lung): 2080 nM
- TGI (NCI-H226 lung): 20.1 µM
- GI50 (HOP-92 NSCLC): 16.4 µM
- TGI (HOP-92 NSCLC): > 43.8 µM
- GI50 (NCI-H460 lung): 732 nM
- TGI (NCI-H460 lung): 5.56 µM
- GI50 (UACC-257 melanoma): 3.34 µM
- TGI (UACC-257 melanoma): > 36.7 µM
- GI50 (UO-31 renal): 1510 nM
- TGI (UO-31 renal): > 20.5 µM
- GI50 (SF-268 CNS): 3.63 µM
- TGI (SF-268 CNS): 42.8 µM
- GI50 (MOLT-4 leukemia): 3.39 µM
- TGI (MOLT-4 leukemia): > 36.9 µM
- GI50 (TK-10 renal): 25.9 µM
- TGI (TK-10 renal): > 100 µM
- GI50 (OVCAR-3 ovarian): 2630 nM
- TGI (OVCAR-3 ovarian): 11.8 µM
- GI50 (U251 CNS): 2300 nM
- TGI (U251 CNS): 22.7 µM
- GI50 (NCI/ADR-RES ovarian): 3.13 µM
- TGI (NCI/ADR-RES ovarian): 24.9 µM
- GI50 (IGROV1 ovarian): 1580 nM
- TGI (IGROV1 ovarian): 10.6 µM
- GI50 (OVCAR-4 ovarian): 6.47 µM
- TGI (OVCAR-4 ovarian): > 47.8 µM
- GI50 (ACHN renal): 1910 nM
- TGI (ACHN renal): 19.6 µM
- GI50 (SK-MEL-2 melanoma): 3.05 µM
- TGI (SK-MEL-2 melanoma): 29.6 µM
- GI50 (SF-295 CNS): 1730 nM
- TGI (SF-295 CNS): 7.31 µM
- GI50 (SK-MEL-28 melanoma): 4.27 µM
- TGI (SK-MEL-28 melanoma): > 80.5 µM
- GI50 (MALME-3M melanoma): 2890 nM
- TGI (MALME-3M melanoma): 13.4 µM
- GI50 (EKVX NSCLC): 16.7 µM
- TGI (EKVX NSCLC): 53.5 µM
- GI50 (HCT-15 colon): 1400 nM
- TGI (HCT-15 colon): > 49.2 µM
- GI50 (CAKI-1 renal): 534 nM
- TGI (CAKI-1 renal): 2960 nM
- GI50 (T-47D breast): 3.75 µM
- TGI (T-47D breast): 20.3 µM
- GI50 (HL-60(TB) leukemia): 3.78 µM
- TGI (HL-60(TB) leukemia): > 35.4 µM
- GI50 (OVCAR-5 ovarian): 7.23 µM
- TGI (OVCAR-5 ovarian): 40.3 µM
- GI50 (DU-145 prostate): 2110 nM
- TGI (DU-145 prostate): 29.5 µM
- GI50 (COLO 205 colon): 8.72 µM
- TGI (COLO 205 colon): 29 µM
- GI50 (NCI-H23 lung): 1240 nM
- TGI (NCI-H23 lung): 3.9 µM
- GI50 (BT-549 breast): 4.09 µM
- TGI (BT-549 breast): 20.6 µM
- GI50 (SNB-75 CNS): 3.98 µM
- TGI (SNB-75 CNS): > 29 µM
- GI50 (MDA-MB-231 breast): 9.02 µM
- TGI (MDA-MB-231 breast): 41.9 µM
- GI50 (KM12 colon): 3.67 µM
- TGI (KM12 colon): 38.8 µM
- GI50 (UACC-62 melanoma): 1060 nM
- TGI (UACC-62 melanoma): 3.3 µM
- GI50 (M14 melanoma): 1480 nM
- TGI (M14 melanoma): 4.75 µM
- GI50 (SR leukemia): 374 nM
- GI50 (SW-620 colon): 1750 nM
- TGI (SW-620 colon): 15.8 µM
- GI50 (SNB-19 CNS): 1790 nM
- TGI (SNB-19 CNS): 8.33 µM
- GI50 (HS 578T breast): 2120 nM
- TGI (HS 578T breast): > 23.5 µM
- GI50 (786-0 renal): 2450 nM
- TGI (786-0 renal): > 29.2 µM
- GI50 (SN12C renal): 1970 nM
- TGI (SN12C renal): 14.4 µM
- GI50 (RPMI-8226 leukemia): 2010 nM
- TGI (RPMI-8226 leukemia): > 40.7 µM
- GI50 (SK-MEL-5 melanoma): 1590 nM
- TGI (SK-MEL-5 melanoma): 4.19 µM
- GI50 (A498 renal): 9.55 µM
- TGI (A498 renal): > 100 µM
- GI50 (LOX IMVI melanoma): 3.46 µM
- TGI (LOX IMVI melanoma): 37.9 µM
- GI50 (A549 NSCLC): 3.26 µM
- TGI (A549 NSCLC): > 100 µM
- GI50 (HT29 colon): 22.6 µM
- TGI (HT29 colon): > 73.6 µM
- GI50 (MCF7 breast): 4.55 µM
- TGI (MCF7 breast): > 50.1 µM
- GI50 (HOP-62 NSCLC): 362 nM
- TGI (HOP-62 NSCLC): 6.41 µM
- GI50 (SF-539 CNS): 1530 nM
- TGI (SF-539 CNS): 4.27 µM
- GI50 (PC-3 prostate): 4.09 µM
- TGI (PC-3 prostate): 53.4 µM

Source: PubChem BioAssay (NCI)
